13 compounds from paper PMC9594048, “Targeting a Multidrug-Resistant Pathogen: First Generation Antagonists of Burkholderia cenocepacia’s BC2L-C Lectin” (ACS Chemical Biology, 2022) can be followed below.

The target in data set [1] is T1, BC2L-C-Nt (rBC2L-CN2) (Burkholderia cenocepacia, UniProt B4EH86). The experiment in a line: Isothermal titration calorimetry (ITC). The class given is binding. The following applies: for Kd: 25 °C. How it is done:
All experiments were performed at 25 °C with an ITC200 isothermal titration calorimeter (Microcal-Malvern Panalytical, Orsay, France). The protein rBC2L-CN2 and its ligands were dissolved in a buffer composed of 20 mM Tris HCl pH 7.0 and 100 mM NaCl. The 200 μL sample cell containing rBC2L-CN (concentrations ranging from 200 to 400 μM) was subjected to injections of ligand solution: 20 to 39 injections of 1 μL or 70 injections of 0.5 μL (5 to 50 mM, chosen depending on the ligand) at intervals of 100, 120, or 200 s, while stirring at 850 rpm. Control experiments were performed by repeating the same protocol, but injecting the ligand into buffer solution. The supplied software Origin 7 or MicroCal PEAQ-ITC was used to fit the experimental data to a theoretical titration curve allowing the determination of affinity.
3. Ligand evaluation materials and methods
3.1. Isothermal Titration Calorimetry
All experiments were performed at 25 °C with an ITC200 isothermal titration calorimeter (Microcal - Malvern Panalytical, Orsay, France). The protein rBC2L -CN2 and its ligands were dissolved in a buffer composed of 20 mM Tris HCl pH 7.0 and 100 mM NaCl. The 200 µL sample cell containing rBC2L-CN (concentrations ranging from 200 to 400 µM) was subjected to injections of ligand solution: 20 to 39 injections of 1 µL or 70 injections of 0.5 µL (5 to 50 mM, chosen depending on the ligand) at intervals of 100, 120 or 200s while stirring at 850 rpm. Control experiments were performed by repeating the same protocol, but injecting the ligand into buffer solution. The supplied software Origin 7 or MicroCal PEAQ-ITC was used to fit the experimental data to a t heoretical titration curve allowing the determination of affinity (i.e., association constant, K a), binding enthalpy (∆H), and stoichiometry (n). Values for free energy change (∆G) and entropy contributions (T∆S) […]
1.K-1. For experiments in ligand excess, the stoichiometry was fixed to 1. […]
Background: ITC needs no label: the signal is the heat of the interaction.

The target of data set [2] is T1, BC2L-C-Nt (rBC2L-CN2). The experiment in a line: Surface plasmon resonance (SPR) affinity on BC2L-C-Nt-coated chip. The format is binding. The following applies: 25 °C, rBC2L-CN2 immobilized on CM5 chip, multi-cycle affinity; SD from duplicates. How it is done: Experiments were performed on a BIACORE X100 instrument (GE Healthcare) at 25 °C in running buffer 10 mM HEPES pH 7.4, 150 mM NaCl, and 0.05% Tween 20, adjusted to include 8% DMSO when required. rBC2L-CN2 was immobilized onto CM5 chips (BIACORE) following the amine coupling procedure detailed in the Supporting Information. The analytes were dissolved in the running buffer at increasing concentrations (range: 3.28–3500 μM) and subjected to multi-cycle affinity studies (300 s association, 300 s dissociation, flow rate 5 μL/min). Injections of compounds at increasing concentrations onto the immobilized rBC2L-CN2 were followed by regeneration of the surface: 10 mM fucose in running buffer and then running buffer at 5 μL/min (100 and 150 s, respectively) after each analyte association/dissociation. For the higher concentrations, regeneration was secured by performing one or more runs replacing analyte by running buffer. Duplicates were performed for all ligands. Binding affinity (KD) was measured after subtracting the channel 1 reference (no immobilized protein) and subtracting a blank injection (running buffer—zero analyte concentration). Data evaluation and curve fitting were performed using the provided BIACORE X100 evaluation software (version 2.0). The protein-coated chip was stored at 4 °C in running buffer and was functional up to 8 weeks after fabrication, as proven by experimentation. […]
3.2. Surface plasmon Resonance
Experiments were performed on a BIACORE X100 instrument (GE Healthcare) at 25 °C in running buffer 10 mM HEPES pH 7.4, 150 mM NaCl and 0.05% Tween 20, adjusted to include 8% DMSO when indicated. rBC2L-CN2 was immobilized onto CM5 chips (BIACORE) following the amine […]
• Activation of the chip by three injections of a NHS/EDC mixture at 10 μL/min for 540s, until a minimum of 300 RU was observed on both channels.
• Injection of rBC2L-CN2 (0.5 mg/mL) dissolved in 10 mM sodium acetate pH 4.5 onto channel 2 (contact time of 540s, flow rate of 10 μL/min), until a minimum of 7000 RU was […]
• Inactivation of both channels by injecting a 1M ethanolamine (pH 8.5) solution at 5 μL/min for 1080s, achieving over 400 and 7000 RU for channel 1 and 2, respectively.
The analytes were dissolved in the running buffer at increasing concentrations (range: 3.28 − 3500 μM) and subjected to multi-cycle affinity studies (300s association, 300s dissociation, flow rate 5 μL/min). Injections of compounds at increasing concentrations onto the immobilized rBC2L-CN2 were followed by regeneration of the surface: 10 mM fucose in running buffer, then running buffer at 5 μL/min (100s and 150s, respectively) after each analyte association/dissociation. For the higher concentrations, regeneration was secured by performing one or more runs replacing analyte by running buffer. Duplicates were performed for all ligands. Binding affinity (KD) was measured after subtracting the channel 1 reference (no immobilized protein) and subtracting of a blank injection (running buffer - zero analyte concentration). Data evaluation and curve fitting was performed using the provided BIACORE X100 evaluation software (version 2.0). […]
In general terms: Surface plasmon resonance follows binding to a sensor surface in real time, without labels.

Data set [3] concerns the target T1, BC2L-C-Nt (rBC2L-CN2). The data set can be described thus: biochemical. The format is binding. The following applies: for Tonset / Tm1 / Tm2: protein 14.3 μM, ligand 143 μM; for Tonset: SD from duplicates; for Tm1: first thermal event, protein alone 82.2 °C; for Tm2: main thermal event, protein alone 84.5 °C; for ΔTm2: shift of main thermal event vs protein alone. How it is done: Experiments were performed on a Microcal PEAQ-DSC instrument (Malvern Panalytical, Orsay, France). A buffer composed of 20 mM Tris HCl pH 7.0 and 100 mM NaCl was used to dilute the protein rBC2L-CN2 and its ligands to concentrations 14.3 and 143 μM, respectively. Samples of 250 μL were loaded, while the reference cell was filled with the matching buffer (aforementioned buffer, ligands when relevant). […] The data were acquired on “Low” feedback mode. The supplied software MicroCal PEAQ-DSC Software 1.53 was used to fit the experimental data. […] The profile obtained was fitted with a “NonTwoState” model, accounting for two thermal events. Each experiment was performed in duplicates, and their averages were calculated by the software.
3. […]
3.3. Differential Scanning Calorimetry
Experiments were performed on a Microcal PEAQ-DSC instrument (Malvern Panalytical, Orsay, […]

A short description of data set [4]: Solubility (qualitative remark). The class given is physicochemical. The following applies: prevented affinity evaluation by ITC.
The mark [5] stands for this setting: 20 mM Tris HCl pH 7.0, 100 mM NaCl, SD from duplicates.

By Kd is commonly meant the equilibrium constant for the complex coming apart. A high value points to lower affinity.

Where two headings read alike, the source gives them in different places.

T1 sequence (B4EH86 entry or part of it): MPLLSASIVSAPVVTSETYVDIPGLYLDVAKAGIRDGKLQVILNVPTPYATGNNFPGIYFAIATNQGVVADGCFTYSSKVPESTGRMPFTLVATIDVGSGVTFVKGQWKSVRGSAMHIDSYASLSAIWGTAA

As for `CNCc1ccc(-c2cn([C@H]3O[C@@H](C)[C@@H](O)[C@@H](O)[C@@H]3O)nn2)cc1` [12b], the dissociation constant (Kd) in data set [1] (setting [5]) came out at 6250 ± 720 µM; in data set [2] it was 2450 ± 20 µM.

As for `CNCc1ccc(/C=C/[C@H]2O[C@@H](C)[C@@H](O)[C@@H](O)[C@@H]2O)cc1` [28b], the figures for the equilibrium dissociation constant (Kd) in data set [1] (setting [5]) and in data set [2] were 3370 ± 400 µM and 1020 ± 20 µM, respectively.

On to `C[C@@H]1O[C@H](NC(=O)c2ccc3[nH]ccc3c2)[C@@H](O)[C@H](O)[C@@H]1O` [8e], for which the “activity compared with methyl-fucoside 13 (ITC)” value in data set [1] (ITC KD compared with […]) is “better activity than methyl-fucoside 13”. In addition, in data set [2], binding was characterised by a dissociation constant (Kd) of 1420 ± 20 µM.

As for `C[C@@H]1O[C@H](C#Cc2ccc(CNC(=N)N)cc2)[C@@H](O)[C@H](O)[C@@H]1O` [22g], the equilibrium dissociation constant (Kd) in data set [1] (setting [5]) was 910 ± 30 µM; in data set [2], 1300 ± 600 µM.

Regarding `CC(=O)N[C@H]1C(O)O[C@H](CO)[C@@H](O)[C@@H]1O[C@@H]1O[C@H](CO)[C@H](O)[C@H](O)[C@H]1O[C@@H]1O[C@@H](C)[C@@H](O)[C@@H](O)[C@@H]1O` (stereo partly shown) [H-type 1 trisaccharide, Fucα(1–2)Galβ(1–3)GlcNAc], in data set [3], the Tonset stood at 74.09 ± 0.26 °C, the Tm1 was 82.65 ± 0.01 °C, the Tm2 stood at 84.92 ± 0.01 °C and the ΔTm2 result was “+0.38 °C”. Further, the ΔTm1 in data set [3] (shift of first thermal event vs protein alone) came to 0.44 °C. Moreover, the ΔTm2 in data set [3] (listed as H-type 1) came to 0.38 ± 0.01 °C.

For `C[C@@H]1O[C@H](n2cc(-c3ccc(C(C)(C)CN)cc3)nn2)[C@@H](O)[C@H](O)[C@@H]1O` [12a], the Kd came out at 2490 ± 60 µM in data set [1] (setting [5]) and 1190 ± 50 µM in data set [2].

Consider `C[C@@H]1O[C@H](C#Cc2ccc(C(C)(C)CN)cc2)[C@@H](O)[C@H](O)[C@@H]1O` [22a], for which the values for the Kd in data set [1], in data set [1] (setting [5]) and in data set [2] were 281 µM, 280 ± 10 µM and 1330 ± 150 µM, respectively. Moreover, the “affinity increase from αMeFuc (ITC)” value in data set [1] (relative to […]) is recorded as ~10 fold. In data set [3], this compound gave a Tonset of 73.29 ± 1.54 °C. Moreover, the Tm1 in data set [3] was 82.43 ± 0.02 °C. The Tm2 in data set [3] turned out to be 84.71 ± 0.01 °C. Besides, the figures for the ΔTm at 143 µM in data set [3] (read-out: ΔTm1) and in data set [3] (read-out: ΔTm2) were 0.21 °C and 0.17 °C, respectively.

Turning to `CNCc1ccc(C#C[C@H]2O[C@@H](C)[C@@H](O)[C@@H](O)[C@@H]2O)cc1` [22b], the dissociation constant (Kd) in data set [1] (setting [5]) amounted to 1240 ± 70 µM; in data set [2], 7850 ± 3390 µM.

Regarding `CNCc1ccc(C(=O)N[C@H]2O[C@@H](C)[C@@H](O)[C@@H](O)[C@@H]2O)cc1` [8b], the Kd amounted to 3660 ± 210 µM in data set [1] (setting [5]) and 1570 ± 60 µM in data set [2].

Turning to `C[C@@H]1O[C@H](NC(=O)c2ccc(C(C)(C)CN)cc2)[C@@H](O)[C@H](O)[C@@H]1O` [8a], the Kd in data set [1] (setting [5]) was 2550 ± 1000 µM; in data set [2], 940 ± 10 µM.

For `C[C@@H]1O[C@H](NC(=O)c2ccc(-c3cccc(N)c3)o2)[C@@H](O)[C@H](O)[C@@H]1O` [8c], the solubility result in data set [4] was “very low and poor”. Besides, in data set [2], the dissociation constant Kd worked out at 2360 ± 970 µM.

With `C[C@@H]1O[C@H](C#CC(O)c2ccc3ncccc3c2)[C@@H](O)[C@H](O)[C@@H]1O` (stereo partly shown) [22f], the equilibrium dissociation constant (Kd) in data set [1] stood at 490 µM; in data set [2] it was 301 ± 1 µM.

For `C[C@@H]1O[C@H](NC(=O)c2ccc3cc[nH]c3c2)[C@@H](O)[C@H](O)[C@@H]1O` [8d], the results for the Kd in data set [1] (setting [5]) and in data set [2] were 3490 ± 1300 µM and 3420 ± 220 µM, respectively.
